Columns and labels:
Type in all cases: in vivo
Nezara viridula = test: B.8 Green Soldier Stink Bug, soybean pod spray test; settings: 120 h, late 3rd instar, after 5 days, read-out: mortality in comparison with untreated controls
Protocol: The active compound was dissolved at the desired concentration in a mixture of 1:1 (vol:vol) distilled water:aceteone. Surfactant (Kinetic) was added at a rate of 0.01% (vol/vol). The test solution was prepared at the day of use. Soybean pods were placed in 90×50 mm glass Petri dishes lined with moistened filter paper and inoculated with ten late 3rd instar N. viridula. Using a hand atomizer, an approximately 2 ml solution was sprayed into each Petri dish. Treated setup was kept at about 25-26° C. and relative humidity of about 65-70%. Percent mortality was recorded after 5 days.

Plutella xylostella = test: B.6 Diamond Back Moth, cabbage leaf disc dip test; settings: foliar, 3rd instar larvae, 72 hours after treatment, read-out: mortality in comparison with untreated controls
Procedure, shortened: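 Cabbage leaf discs were dipped in compound in 1:1 water:acetone with 0.01% surfactant, air-dried, then infested with ten 3rd instar larvae. Mortality read at 72 h after treatment, with feeding damage scored on a 0–100% scale.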

Anthonomus grandis = test: B.1 Boll weevil (Anthonomus grandis), 96-well microtiter plate diet test; settings: 120 h, egg and larval mortality, 5 days, read-out: mortality in comparison with untreated controls
Protocol: For evaluating control of boll weevil, the test unit consisted of 96-well-microtiter plates containing an insect diet and 5-10 A. grandis eggs.
The compounds were formulated using a solution containing 75% v/v water and 25% v/v DMSO. Different concentrations of formulated compounds were sprayed onto the insect diet at 5 μl, using a custom-built micro atomizer, at two replications.
After application, microtiter plates were incubated at about 25±1° C. and about 75±5% relative humidity for 5 days. Egg and larval mortality were then visually assessed.

O=C(Nc1ncc(F)cc1F)c1cc(OC2=NOC(c3cc(Cl)c(F)c(Cl)c3)(C(F)(F)F)C2)ccc1Cl (stereo not drawn) [II-8, 2-chloro-5-[[5-(3,5-dichloro-4-fluoro-phenyl)-5-(trifluoromethyl)-4H-isoxazol-3-yl]oxy]-N-(3,5-difluoro-2-pyridyl)benzamide]
≥ 75%: mortality at 300 ppm (Nezara viridula) | mortality at 300 ppm (Plutella xylostella) | mortality at 2500 ppm (Anthonomus grandis)
